Results published in PubChem BioAssay (NCI).
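GI50 = concentration required for 50% inhibition of growth. TGI: concentration producing complete growth inhibition.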

Key:
Assay in all cases: growth of human tumour cells (NCI), 384-well format
[1] = test system: 786-0 renal
[2] = test system: A498 renal
[3] = test system: A549 NSCLC
[4] = test system: ACHN renal
[5] = test system: BT-549 breast
[6] = test system: CAKI-1 renal
[7] = test system: CCRF-CEM leukemia
[8] = test system: COLO 205 colon
[9] = test system: DU-145 prostate
[10] = test system: EKVX NSCLC
[11] = test system: HCC-2998 colon
[12] = test system: HCT-116 colon
[13] = test system: HCT-15 colon
[14] = test system: HL-60(TB) leukemia
[15] = test system: HOP-62 NSCLC
[16] = test system: HOP-92 NSCLC
[17] = test system: HS 578T breast
[18] = test system: HT29 colon
[19] = test system: IGROV1 ovarian
[20] = test system: K-562 leukemia
[21] = test system: KM12 colon
[22] = test system: LOX IMVI melanoma
[23] = test system: M14 melanoma
[24] = test system: MALME-3M melanoma
[25] = test system: MCF7 breast
[26] = test system: MDA-MB-231 breast
[27] = test system: MDA-MB-435 melanoma
[28] = test system: MDA-MB-468 breast
[29] = test system: MOLT-4 leukemia
[30] = test system: NCI-H226 lung
[31] = test system: NCI-H23 lung
[32] = test system: NCI-H322M lung
[33] = test system: NCI-H460 NSCLC
[34] = test system: NCI-H522 lung
[35] = test system: NCI/ADR-RES ovarian
[36] = test system: OVCAR-3 ovarian
[37] = test system: OVCAR-4 ovarian
[38] = test system: OVCAR-5 ovarian
[39] = test system: OVCAR-8 ovarian
[40] = test system: PC-3 prostate
[41] = test system: RPMI-8226 leukemia
[42] = test system: RXF 393 renal
[43] = test system: SF-268 CNS
[44] = test system: SF-295 CNS
[45] = test system: SF-539 CNS
[46] = test system: SK-MEL-28 melanoma
[47] = test system: SK-MEL-5 melanoma
[48] = test system: SK-OV-3 ovarian
[49] = test system: SN12C renal
[50] = test system: SNB-19 CNS
[51] = test system: SNB-75 CNS
[52] = test system: SW-620 colon
[53] = test system: T-47D breast
[54] = test system: TK-10 renal
[55] = test system: U251 glioblastoma
[56] = test system: UACC-257 melanoma
[57] = test system: UACC-62 melanoma
[58] = test system: UO-31 renal

## CN1CCN(c2ccc(C(=O)Nc3cc(-c4cccc(NS(=O)(=O)c5ccccc5)c4)[nH]n3)cc2)CC1
[1]
  GI50: 1560 nM
  TGI: 2980 nM
[2]
  GI50: 2070 nM
  TGI: 3530 nM
[3]
  GI50: 1780 nM
  TGI: 3300 nM
[4]
  GI50: 2150 nM
  TGI: 4660 nM
[5]
  GI50: 1170 nM
  TGI: 2420 nM
[6]
  GI50: 1670 nM
  TGI: 3080 nM
[7]
  GI50: 1620 nM
  TGI: 2990 nM
[8]
  GI50: 891 nM
  TGI: 2140 nM
[9]
  GI50: 2330 nM
  TGI: 4970 nM
[10]
  GI50: 2100 nM
  TGI: 4870 nM
[11]
  GI50: 1470 nM
  TGI: 3010 nM
[12]
  GI50: 1660 nM
  TGI: 3080 nM
[13]
  GI50: 3500 nM
  TGI: 8850 nM
[14]
  GI50: 2480 nM
  TGI: 3960 nM
[15]
  GI50: 1590 nM
  TGI: 3310 nM
[16]
  GI50: 1370 nM
  TGI: 2870 nM
[17]
  GI50: 1310 nM
  TGI: 2600 nM
[18]
  GI50: 1520 nM
  TGI: 2930 nM
[19]
  GI50: 628 nM
  TGI: 1930 nM
[20]
  GI50: 1450 nM
  TGI: 2790 nM
[21]
  GI50: 25 nM
  TGI: 1380 nM
[22]
  GI50: 1620 nM
  TGI: 3010 nM
[23]
  GI50: 1650 nM
  TGI: 3030 nM
[24]
  GI50: 1640 nM
  TGI: 3010 nM
[25]
  GI50: 1410 nM
  TGI: 2920 nM
[26]
  GI50: 1520 nM
  TGI: 3300 nM
[27]
  GI50: 1960 nM
  TGI: 3410 nM
[28]
  GI50: 2090 nM
  TGI: 3620 nM
[29]
  GI50: 1200 nM
  TGI: 2440 nM
[30]
  GI50: 111 nM
  TGI: 11600 nM
[31]
  GI50: 1910 nM
  TGI: 3750 nM
[32]
  GI50: 1930 nM
  TGI: 4220 nM
[33]
  GI50: 1690 nM
  TGI: 3150 nM
[34]
  GI50: 1880 nM
  TGI: 3550 nM
[35]
  GI50: > 100000 nM
  TGI: > 100000 nM
[36]
  GI50: 1620 nM
  TGI: 3030 nM
[37]
  GI50: 1790 nM
  TGI: 4070 nM
[38]
  GI50: 1890 nM
  TGI: 3940 nM
[39]
  GI50: 1810 nM
  TGI: 3350 nM
[40]
  GI50: 2570 nM
  TGI: 7410 nM
[41]
  GI50: 1450 nM
  TGI: 2780 nM
[42]
  GI50: 1240 nM
  TGI: 2520 nM
[43]
  GI50: 1230 nM
  TGI: 2700 nM
[44]
  GI50: 1890 nM
  TGI: 3400 nM
[45]
  GI50: 838 nM
  TGI: 2110 nM
[46]
  GI50: 2170 nM
  TGI: 3630 nM
[47]
  GI50: 1460 nM
  TGI: 2790 nM
[48]
  GI50: 1160 nM
  TGI: 2440 nM
[49]
  GI50: 2440 nM
  TGI: 8740 nM
[50]
  GI50: 2020 nM
  TGI: 4480 nM
[51]
  GI50: 949 nM
  TGI: 2370 nM
[52]
  GI50: 1840 nM
  TGI: 3330 nM
[53]
  GI50: 1370 nM
  TGI: 2690 nM
[54]
  GI50: 2270 nM
  TGI: 4560 nM
[55]
  GI50: 1640 nM
  TGI: 3030 nM
[56]
  GI50: 1780 nM
  TGI: 3180 nM
[57]
  GI50: 1800 nM
  TGI: 3200 nM
[58]
  GI50: 3690 nM
  TGI: 10400 nM
